Legend:
Staphylococcus aureus [1] = test: Minimal synergizing concentration required to inhibit growth of Staphylococcus aureus strain 447 in the presence of 4 ug/mL of methicillin.; assay type: functional
Staphylococcus aureus [2] = test: Minimum concentration required to inhibit growth of methicillin sensitive Staphylococcus aureus strain 446; assay type: functional
Staphylococcus aureus [3] = test: Minimum concentration required to inhibit growth of methicillin resistant Staphylococcus aureus strain 447; assay type: functional
Staphylococcus aureus [4] = test: Ability of 40 ug to enlarge the zone of inhibition produced by 100 microg of methicillin in disk assay using Staphylococcus aureus strain 447; Synergy; assay type: functional, organism-based
Staphylococcus aureus [5] = test: Ability of 40 ug to enlarge the zone of inhibition produced by 100 microg of methicillin in disk assay using Staphylococcus aureus strain 447; synergy; assay type: functional, organism-based
Staphylococcus aureus [6] = test: Ability of 40 ug to enlarge the zone of inhibition produced by 100 microg of methicillin in disk assay using Staphylococcus aureus strain 447; No synergy; assay type: functional, organism-based
[7] = Staphylococcus aureus, read-out: MIC

| SMILES | MSC (Staphylococcus aureus [1]) [µg/mL] | MIC (Staphylococcus aureus [2]; [7]) [µg/mL] | other results |
| --- | --- | --- | --- |
| O=C1N[C@@H](C(c2ccccc2)c2ccccc2)C(=O)N2CCCC2C(=O)NC(CO)(Cc2ccccc2)C(=O)Nc2ccccc21 (single isomer, unassigned; 1a) [listing 1 of 2 here] | >100 | > 128 | MIC (Staphylococcus aureus [3]; [7]): > 100 µg/mL |
| O=C1N[C@@H](C(c2ccccc2)c2ccccc2)C(=O)N2CCCC2C(=O)N[C@](CO)(Cc2ccccc2)C(=O)Nc2ccccc21 (single isomer, unassigned) | >128 | – | Synergy with methicillin (Staphylococcus aureus [4]): Synergy; MIC (Staphylococcus aureus [3]): >128 µg/mL |
| O=C1N[C@@H](C(c2ccccc2)c2ccccc2)C(=O)N2CCCC2C(=O)NC(CO)(Cc2ccccc2)C(=O)Nc2ccccc21 (single isomer, unassigned; 1b) [listing 1 of 2 here] | – | – | Synergy with methicillin (Staphylococcus aureus [4]): Synergy |
| O=C(N[C@@H](C(=O)N1CCC[C@H]1C(=O)N[C@H](CO)Cc1ccccc1)C(c1ccccc1)c1ccccc1)OCc1ccccc1 | 12.5 | > 100 | Synergy with methicillin (Staphylococcus aureus [5]): synergy |
| O=C1N[C@@H](C(c2ccccc2)c2ccccc2)C(=O)N2CCCC2C(=O)N[C@@](CO)(Cc2ccccc2)C(=O)Nc2ccccc21 (single isomer, unassigned) | >128 | – | MIC (Staphylococcus aureus [2]): >128 µg/mL |
| O=C1N[C@@H](C(c2ccccc2)c2ccccc2)C(=O)N2CCCC2C(=O)NC(CO)(Cc2ccccc2)C(=O)Nc2ccccc21 (single isomer, unassigned; 1b) [listing 2 of 2 here] | 100 | > 100 | – |
| O=C1N[C@@H](C(c2ccccc2)c2ccccc2)C(=O)N2CCCC2C(=O)NC(CO)(Cc2ccccc2)C(=O)Nc2ccccc21 (single isomer, unassigned; 1a) [listing 2 of 2 here] | – | – | Synergy with methicillin (Staphylococcus aureus [6]): No synergy |
| O=C1N[C@@H](C(c2ccccc2)c2ccccc2)C(=O)N2CCC[C@@H]2C(=O)NCc2ccccc2-c2ccccc21 | >100 | > 100 | Synergy with methicillin (Staphylococcus aureus [6]): No synergy |

Source: ChEMBL document CHEMBL1130369, “Design, syntheses and potentiating activities against methicillin resistant Staphylococcus aureus of cyclic analogs of LY301621” (1997)
